Measurements as given in ChEMBL document CHEMBL4359906, “Design and synthesis of new N-terminal fatty acid modified-antimicrobial peptide analogues with potent in vitro biological activity” (Eur J Med Chem, 2019).
≈ marks a conversion by molar mass, not a printed value. Calls of active or inactive are those of the source. The calls are words filed in the database; no cut-off is given here. Where a SMILES comes first, the peptide text is derived from it. Bridges are numbered along the chain shown (N, C = ends). [ ]: non-standard residue; d: D form. The star is where a group is joined. X1 = CC[C@H](C)CCCCC(=O)*; Dab = NCC[C@H](N)C(=O)O

How the values were obtained:
Escherichia coli [1] = test: Antibacterial activity against Escherichia coli ATCC 25922 after 18 hrs by CLSI based broth microdilution method; format: functional
Escherichia coli [2] = test: Antibacterial activity against Escherichia coli ATCC 43837 after 18 hrs by CLSI based broth microdilution method; format: functional
Klebsiella pneumoniae = test: Antibacterial activity against Klebsiella pneumoniae ATCC 700603 after 18 hrs by CLSI based broth microdilution method; format: functional
Pseudomonas aeruginosa = test: Antibacterial activity against Pseudomonas aeruginosa ATCC 27853 after 18 hrs by CLSI based broth microdilution method; format: functional
Staphylococcus aureus [3] = test: Antibacterial activity against Staphylococcus aureus ATCC 25923 after 18 hrs by CLSI based broth microdilution method; format: functional; details: ATCC 25923, 18 h
Staphylococcus aureus [4] = test: Antibacterial activity against methicillin-resistant Staphylococcus aureus 936 after 18 hrs by CLSI based broth microdilution method; format: functional; details: Staphylococcus aureus, 936, 18 h
Bacillus subtilis = test: Antibacterial activity against Bacillus subtilis ATCC 23857 after 18 hrs by CLSI based broth microdilution method; format: functional; details: ATCC 23857, 18 h
Escherichia coli [5] = test: Antibacterial activity against Escherichia coli ATCC 25922 after 18 hrs in presence of NaCl by CLSI based broth microdilution method (reference value: 4 microM); format: functional; details: ATCC 25922, 18 h
Escherichia coli [6] = test: Antibacterial activity against Escherichia coli ATCC 25922 after 18 hrs in presence of KCl by CLSI based broth microdilution method (reference value: 4 microM); format: functional; details: ATCC 25922, 18 h
Escherichia coli [7] = test: Antibacterial activity against Escherichia coli ATCC 25922 after 18 hrs in presence of MgCl2 by CLSI based broth microdilution method (reference value: 4 microM); format: functional; details: ATCC 25922, 18 h
Escherichia coli [8] = test: Antibacterial activity against Escherichia coli ATCC 25922 after 18 hrs in presence of FeCl3 by CLSI based broth microdilution method (reference value: 4 microM); format: functional; details: ATCC 25922, 18 h
Staphylococcus aureus [9] = test: Antibacterial activity against Staphylococcus aureus ATCC 25923 after 18 hrs in presence of NaCl by CLSI based broth microdilution method (reference value: 16 microM); format: functional; details: ATCC 25923, 18 h
Staphylococcus aureus [10] = test: Antibacterial activity against Staphylococcus aureus ATCC 25923 after 18 hrs in presence of KCl by CLSI based broth microdilution method (reference value: 16 microM); format: functional; details: ATCC 25923, 18 h
Staphylococcus aureus [11] = test: Antibacterial activity against Staphylococcus aureus ATCC 25923 after 18 hrs in presence of MgCl2 by CLSI based broth microdilution method (reference value: 16 microM); format: functional; details: ATCC 25923, 18 h
Staphylococcus aureus [12] = test: Antibacterial activity against Staphylococcus aureus ATCC 25923 after 18 hrs in presence of FeCl3 by CLSI based broth microdilution method (reference value: 16 microM); format: functional; details: ATCC 25923, 18 h
Escherichia coli [13] = test: Disruption of membrane integrity in Escherichia coli ATCC 25922 assessed as membrane damage by measuring PI fluorescence at 4 times of MIC incubated for 1 hr by PI dye based flow cytometric analysis (reference value: 1.35%); format: functional
Escherichia coli [14] = test: Disruption of membrane integrity in Escherichia coli ATCC 25922 assessed as membrane damage by measuring PI fluorescence at 2 times of MIC incubated for 1 hr by PI dye based flow cytometric analysis (reference value: 1.35%); format: functional
Escherichia coli [15] = test: Induction of membrane disruption in Escherichia coli ATCC 25922 assessed as rough membrane surface at 4 times of MIC after 2 hrs by SEM analysis; format: functional, organism-based
Escherichia coli [16] = test: Induction of membrane disruption in Escherichia coli ATCC 25922 assessed as corrugated membrane surface at 4 times of MIC after 2 hrs by SEM analysis; format: functional, organism-based
Escherichia coli [17] = test: Induction of membrane disruption in Escherichia coli ATCC 25922 assessed as degeneration in membrane at 4 times of MIC after 2 hrs by SEM analysis; format: functional, organism-based
DNA = test: Binding affinity to Escherichia coli ATCC 25922 genomic DNA at 4 x MIC after 30 mins by agarose gel electrophoresis; format: nucleic-acid assay
Escherichia coli [18] = test: Ratio of antibacterial activity against Escherichia coli ATCC 25922 in presence of NaCl to antibacterial activity against Escherichia coli ATCC 25922; format: functional
Escherichia coli [19] = test: Ratio of antibacterial activity against Escherichia coli ATCC 25922 in presence of KCl to antibacterial activity against Escherichia coli ATCC 25922; format: functional
Escherichia coli [20] = test: Ratio of antibacterial activity against Escherichia coli ATCC 25922 in presence of MgCl2 to antibacterial activity against Escherichia coli ATCC 25922; format: functional
Escherichia coli [21] = test: Ratio of antibacterial activity against Escherichia coli ATCC 25922 in presence of FeCl3 to antibacterial activity against Escherichia coli ATCC 25922; format: functional
Staphylococcus aureus [22] = test: Ratio of antibacterial activity against Staphylococcus aureus ATCC 25923 in presence of NaCl to antibacterial activity against Staphylococcus aureus ATCC 25923; format: functional
Staphylococcus aureus [23] = test: Ratio of antibacterial activity against Staphylococcus aureus ATCC 25923 in presence of KCl to antibacterial activity against Staphylococcus aureus ATCC 25923; format: functional
Staphylococcus aureus [24] = test: Ratio of antibacterial activity against Staphylococcus aureus ATCC 25923 in presence of MgCl2 to antibacterial activity against Staphylococcus aureus ATCC 25923; format: functional
Staphylococcus aureus [25] = test: Ratio of antibacterial activity against Staphylococcus aureus ATCC 25923 in presence of FeCl3 to antibacterial activity against Staphylococcus aureus ATCC 25923; format: functional
Staphylococcus aureus [26] = test: Antibiofilm activity against Staphylococcus aureus ATCC 25923 at 1 to 2 times of MIC after 24 hrs by crystal violet staining based assay; format: functional, organism-based
Escherichia coli [27] = test: Induction of membrane disruption in Escherichia coli ATCC 25922 assessed as fracture in membrane at 4 times of MIC after 2 hrs by SEM analysis; format: functional, organism-based
Escherichia coli [28] = test: Induction of ROS generation in Escherichia coli ATCC 25922; format: functional, organism-based
[29] = Klebsiella pneumoniae, 700603, 18 h

CC1(C)S[C@@H]2[C@H](NC(=O)Cc3ccccc3)C(=O)N2[C@H]1C(=O)O [PENICILLIN G]
MIC (Escherichia coli [1]; ATCC 25922, 18 h): 64 µM (≈ 21.4 µg/mL)
MIC (Escherichia coli [2]; ATCC 43837, 18 h): 8 µM (≈ 2.68 µg/mL)
MIC (Klebsiella pneumoniae; [29]): > 128 µM
MIC (Pseudomonas aeruginosa; ATCC 27853, 18 h): > 128 µM
MIC (Staphylococcus aureus [3]): < 1 µM
MIC (Staphylococcus aureus [4]): 32 µM (≈ 10.7 µg/mL)
MIC (Bacillus subtilis): < 1 µM

CC[C@H](C)CCCCC(=O)N[C@@H](CCN)C(=O)N[C@H](C(=O)N[C@@H](CCN)C(=O)N[C@H]1CCNC(=O)[C@H]([C@@H](C)O)NC(=O)[C@H](CCN)NC(=O)[C@H](CCN)NC(=O)[C@H](CC(C)C)NC(=O)[C@@H](Cc2ccccc2)NC(=O)[C@H](CCN)NC1=O)[C@@H](C)O (X1-[Dab]T[Dab][Dab][Dab][dF]L[Dab][Dab]T; lactam 4-C)
MIC (Escherichia coli [1]; ATCC 25922, 18 h): 4 µM (≈ 4.81 µg/mL)
MIC (Escherichia coli [2]; ATCC 43837, 18 h): 2 µM (≈ 2.41 µg/mL)
MIC (Klebsiella pneumoniae; [29]): 8 µM (≈ 9.63 µg/mL)
MIC (Pseudomonas aeruginosa; ATCC 27853, 18 h): 2 µM (≈ 2.41 µg/mL)
MIC (Staphylococcus aureus [3]): 16 µM (≈ 19.3 µg/mL)
MIC (Staphylococcus aureus [4]): 16 µM (≈ 19.3 µg/mL)
MIC (Bacillus subtilis): 8 µM (≈ 9.63 µg/mL)
MIC (Escherichia coli [5]): 16 µM
MIC (Escherichia coli [6]): 16 µM
MIC (Escherichia coli [7]): 8 µM
MIC (Escherichia coli [8]): 4 µM
MIC (Staphylococcus aureus [9]): 64 µM
MIC (Staphylococcus aureus [10]): 16 µM
MIC (Staphylococcus aureus [11]): 32 µM
MIC (Staphylococcus aureus [12]): 16 µM
Activity (Escherichia coli [13]): 8.49%
Activity (Escherichia coli [14]): 3.47%
Activity (Escherichia coli [15]): Active
Activity (Escherichia coli [16]): Active
Activity (Escherichia coli [17]): Active
Activity (DNA): inactive
Ratio (Escherichia coli [18]): 2 - 4
Ratio (Escherichia coli [19]): 2 - 4
Ratio (Escherichia coli [20]): 2 - 4
Ratio (Escherichia coli [21]): 2 - 4
Ratio (Staphylococcus aureus [22]): 2 - 4
Ratio (Staphylococcus aureus [23]): 2 - 4
Ratio (Staphylococcus aureus [24]): 2 - 4
Ratio (Staphylococcus aureus [25]): 2 - 4
inhibition (Staphylococcus aureus [26]): Active
Activity (Escherichia coli [27]): Active
Activity (Escherichia coli [28]): inactive

CC[C@H](C)[C@H](NC(=O)[C@H](CCCNC(=N)N)NC(=O)[C@@H](CCCCN)NC(=O)[C@H](CC(C)C)NC(=O)[C@H](CC(C)C)NC(=O)CN)C(=O)N[C@H](CCCCN)C(=O)N[C@H](C(=O)N[C@@H](CC(C)C)C(=O)N[C@@H](CC(C)C)C(N)=O)[C@@H](C)O (H-GLL[dK]RI[dK]TLL-NH2)
MIC (Escherichia coli [1]; ATCC 25922, 18 h): > 128 µM
MIC (Escherichia coli [2]; ATCC 43837, 18 h): > 128 µM
MIC (Klebsiella pneumoniae; [29]): > 128 µM
MIC (Pseudomonas aeruginosa; ATCC 27853, 18 h): 64 µM (≈ 73.8 µg/mL)
MIC (Staphylococcus aureus [3]): > 128 µM
MIC (Staphylococcus aureus [4]): > 128 µM
MIC (Bacillus subtilis): 64 µM (≈ 73.8 µg/mL)

CN[C@H](CC(C)C)C(=O)N[C@H]1C(=O)N[C@@H](CC(N)=O)C(=O)N[C@H]2C(=O)N[C@H]3C(=O)N[C@H](C(=O)N[C@H](C(=O)O)c4cc(O)cc(O)c4-c4cc3ccc4O)[C@H](O)c3ccc(c(Cl)c3)Oc3cc2cc(c3O[C@@H]2O[C@H](CO)[C@@H](O)[C@H](O)[C@H]2O[C@H]2C[C@](C)(N)[C@H](O)[C@H](C)O2)Oc2ccc(cc2Cl)[C@H]1O [VANCOMYCIN]
MIC (Escherichia coli [1]): inactive
MIC (Escherichia coli [2]): inactive
MIC (Klebsiella pneumoniae): inactive
MIC (Pseudomonas aeruginosa): inactive
MIC (Staphylococcus aureus [3]): < 1 µM
MIC (Staphylococcus aureus [4]): < 1 µM
MIC (Bacillus subtilis): < 1 µM

CCCC(=O)NCC(=O)N[C@@H](CC(C)C)C(=O)N[C@@H](CC(C)C)C(=O)N[C@H](CCCCN)C(=O)N[C@@H](CCCNC(=N)N)C(=O)N[C@H](C(=O)N[C@H](CCCCN)C(=O)N[C@H](C(=O)N[C@@H](CC(C)C)C(=O)N[C@@H](CC(C)C)C(N)=O)[C@@H](C)O)[C@@H](C)CC
MIC (Escherichia coli [1]; ATCC 25922, 18 h): > 128 µM
MIC (Escherichia coli [2]; ATCC 43837, 18 h): > 128 µM
MIC (Klebsiella pneumoniae; [29]): > 128 µM
MIC (Pseudomonas aeruginosa; ATCC 27853, 18 h): 128 µM (≈ 157 µg/mL)
MIC (Staphylococcus aureus [3]): > 128 µM
MIC (Staphylococcus aureus [4]): > 128 µM
MIC (Bacillus subtilis): 128 µM (≈ 157 µg/mL)

CCCCCC(=O)NCC(=O)N[C@@H](CC(C)C)C(=O)N[C@@H](CC(C)C)C(=O)N[C@H](CCCCN)C(=O)N[C@@H](CCCNC(=N)N)C(=O)N[C@H](C(=O)N[C@H](CCCCN)C(=O)N[C@H](C(=O)N[C@@H](CC(C)C)C(=O)N[C@@H](CC(C)C)C(N)=O)[C@@H](C)O)[C@@H](C)CC
MIC (Escherichia coli [1]; ATCC 25922, 18 h): 128 µM (≈ 160 µg/mL)
MIC (Escherichia coli [2]; ATCC 43837, 18 h): > 128 µM
MIC (Klebsiella pneumoniae; [29]): > 128 µM
MIC (Pseudomonas aeruginosa; ATCC 27853, 18 h): 32 µM (≈ 40.1 µg/mL)
MIC (Staphylococcus aureus [3]): > 128 µM
MIC (Staphylococcus aureus [4]): > 128 µM
MIC (Bacillus subtilis): 16 µM (≈ 20 µg/mL)
